Holding throughout (assay): NCI anticancer screen, dose series, 48 h
For test [1], the system named is HL-60(TB) leukemia.
Test [2] deals with NCI-H23 lung.
The test system of test [3] is OVCAR-3 ovarian.
Test [4] has as its system OVCAR-8 ovarian.
For test [5], the system named is RXF 393 renal.
For test [6], the system named is SK-MEL-5 melanoma.
The subject of test [7] is SK-OV-3 ovarian.
The test system of test [8] is SN12C renal.
The subject of test [9] is UACC-257 melanoma.
Test [10] deals with BT-549 breast.

The structures appear in SMILES notation.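 Cultured in 96-well plates, cells were exposed to test compound for 48 hours across five concentrations. GI50 = concentration required for 50% inhibition of growth. TGI denotes the concentration required for complete inhibition of growth.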 Where a SMILES comes first, the peptide text is derived from it. The star is where a group is joined. Boc = CC(C)(C)OC(=O)*; OBn = c1ccc(CO*)cc1

Consider `C#CCn1c(=O)c(C#N)c(O)c2cc3ccccc3nc21`, for which the TGI in test [1], in test [2], in test [3], in [4], in [5] and in test [6] was greater than 100 µM throughout. Besides, the TGI in test [7], in test [8] and in test [9] was greater than 100 µM throughout.

As for `CC(C)(C)OC(=O)NC(Cc1ccccc1)C(=O)NC(Cc1ccccc1)C(=O)NCC(=O)OCc1ccccc1` (stereo not drawn) (Boc-Phe-Phe-Gly-OBn; configuration not given here), the TGI in test [1] was 57.6 µM; in [2], 80.7 µM; in [3], 46.1 µM; in [4], greater than 100 µM; in test [7] it was 46 µM; in [8], 85.9 µM. The TGI in test [9] was greater than 100 µM.

As for `c1ccc2c(Cc3nnc4sc(SSc5nn6c(Cc7c[nH]c8ccccc78)nnc6s5)nn34)c[nH]c2c1`, the TGI in test [1] was 75.7 µM; in [2], 34.7 µM; in test [3] it was 29.2 µM; in test [4] it was 73.1 µM; in [5] it was 50.9 µM; in [6], 24.2 µM. Besides, the results for the TGI in test [7], in test [8] and in test [9] were greater than 100 µM, 56.3 µM and greater than 100 µM, respectively.

For the compound `C[n+]1c2ccccc2c(C(=O)Nc2ccc(S(=O)(=O)N=C(N)N)cc2)c2ccccc21`, the TGI in test [2], in [3], in [4], in [6], in test [7] and in [8] was greater than 100 µM in each case. Also, in test [9], the TGI was greater than 100 µM.

Regarding `CCCCOCn1c(=O)[nH]c(=O)c2cc(Br)ccc21`, the TGI is greater than 100 µM in [1]; greater than 100 µM in test [3]; 88.6 µM in test [4]; greater than 100 µM in test [5]; greater than 100 µM in [6]; greater than 100 µM in test [7]. Moreover, the TGI in test [8] and in [9] was greater than 100 µM throughout.

In the case of `Cc1ccc(-c2n[nH]c(=O)[nH]2)cc1[N+](=O)[O-]`, the TGI in test [10], in [1], in [2], in test [3], in [4] and in test [5] was greater than 100 µM throughout. The TGI in [6], in test [8] and in test [9] was greater than 100 µM in each case.

On to `COc1cc(S(=O)(=O)Nc2ccc(C3=NNC(c4ccccc4)C3)cc2)ccc1F` (stereo not drawn), for which the GI50 in test [10] was greater than 100 µM; in test [2], 34.6 µM; in [3], 50.3 µM; in test [4] it was 68.1 µM; in test [6] it was 13.9 µM; in test [7] it was greater than 100 µM. Further, the GI50 in test [9] is 29.3 µM. The TGI in [10] is greater than 100 µM; in test [2], greater than 100 µM; in test [3] it was greater than 100 µM; in test [4], greater than 100 µM; in [6] it was 31.6 µM; in test [7], greater than 100 µM. In test [9], this compound gave a TGI greater than 100 µM.

Consider `COC(=O)C1(Cc2ccccc2)Cc2ccccc2C1`, for which the TGI is 45.8 µM in [1]; greater than 100 µM in test [2]; greater than 100 µM in [4]; 31.9 µM in test [6]; greater than 100 µM in test [7]; greater than 100 µM in test [8]. Also, the TGI in test [9] turned out to be 65.6 µM.

For `NNC(=S)N1CCN(C(=S)NN)CC1`, the TGI in [10], in [1], in test [2], in [3], in [6] and in [7] was greater than 100 µM throughout. Also, the TGI in test [8] and in test [9] was greater than 100 µM throughout.

Take `COc1c2cc(C(C)(C)C)cc1Cc1cccc(c1O)Cc1cc(C(C)(C)C)cc(c1OC)Cc1cccc(c1O)Cc1cc(C(C)(C)C)cc(c1OC)Cc1cccc(c1O)C2`: the TGI in test [1], in [3], in [4], in test [5], in test [6] and in test [8] was greater than 100 µM throughout. The compound further came in with a TGI in [9] greater than 100 µM.

For the compound `C=CC[C@@]1(C(=O)OC)[C@H](Sc2ccccc2)C1(C)C`, the TGI in test [10] was greater than 100 µM; in test [1] it was 45.8 µM; in [2], 97.3 µM; in [3] it was greater than 100 µM; in [4] it was greater than 100 µM; in [6] it was 44.3 µM. Besides, the TGI in [7] was greater than 100 µM; in test [8], 76.8 µM; in test [9] it was 96.9 µM.

As to `O=C1/C(=C2\Sc3c(ccc(Cl)c3Cl)C2=O)Sc2c1ccc(Cl)c2Cl`, the TGI in test [10], in [2], in [3], in [4], in test [5] and in test [6] was greater than 100 µM each time. In addition, the TGI in test [8] and in [9] was greater than 100 µM in each case.

With `COc1cc2c(cc1OC)-c1c3c(cc4c1[C@@H](C2)N(C)CC4)OCO3`, the TGI amounted to 29.9 µM in test [1]; 26.1 µM in [2]; 44.6 µM in test [3]; 31.9 µM in [4]; 19.2 µM in test [5]; 19.3 µM in [6]. For the same compound, the TGI in [7] was 50.6 µM; in test [8] it was 39 µM; in test [9] it was 26 µM.

Regarding `NCCCCNCCCNC(=O)c1nc(-c2csc(CCN)n2)sc1Cl`, the TGI in [1], in test [2], in test [3], in test [4], in test [5] and in test [6] was greater than 100 µM throughout. In addition, the TGI in test [7], in test [8] and in [9] was greater than 100 µM throughout.

Turning to `CCc1ccc2c(c1)CC1(C2)Cc2cc3c(cc2C1)C(=O)CC3` (stereo not drawn), the TGI in [1] is 15.6 µM; in test [2], 96.6 µM; in test [3], 42.8 µM; in test [4], 64.9 µM; in test [5], greater than 100 µM; in test [6] it was 16.9 µM. Moreover, the TGI was greater than 100 µM in [7], 89.6 µM in test [8] and 51.6 µM in test [9].

For the compound `COc1ccc2c(c1)/c(=C/c1ccc(N(C)C)cc1)c1cc(-c3ccccc3)[n+](C)n12`, the TGI amounted to 0.44 µM in test [4]; 1.64 µM in test [5]; 1.06 µM in test [6]; 1.98 µM in test [7]; 1.24 µM in test [8]; 2.19 µM in [9].

As to `O=C(NCCCNCCNC(=O)c1cc(-c2ccccc2)nc2ccccc12)c1cc(-c2ccccc2)nc2ccccc12`, the TGI was determined as 29.4 µM in test [10]; 4.3 µM in test [1]; 3.6 µM in test [3]; 3.16 µM in test [4]; 3.03 µM in test [6]; 6.34 µM in [7]. The TGI in [8] turned out to be 3.24 µM; in [9] it was 3.08 µM.

For `CN(Cc1cnc2nc(N)nc(N)c2n1)c1ccc(C(=O)NC(CCC(=O)NC(P(=O)(O)O)P(=O)(O)O)C(=O)O)cc1` (stereo not drawn), the TGI in test [1], in test [2], in test [3], in [4], in test [5] and in test [6] was greater than 100 µM throughout. The TGI in [8] and in test [9] was greater than 100 µM throughout.

On to `Nc1cc(N2CCCC2)nc(=O)n1Cc1ccccc1`, for which the TGI in [10], in test [1], in test [2], in [4], in [6] and in test [8] was greater than 100 µM in each case. For the same compound, the TGI in test [9] was greater than 100 µM.

Turning to `COc1cc(C2SCC(=O)N2c2ccc(Oc3ccc(Cl)cc3)c(Cl)c2)cc(OC)c1OC` (stereo not drawn), the TGI was 32.5 µM in test [10]; greater than 100 µM in test [2]; 31.1 µM in [3]; 30.7 µM in [4]; 32.1 µM in [6]; 33.6 µM in test [7]. Moreover, the TGI was found to be 56.2 µM in [8] and 33.3 µM in test [9].

Consider `CC1(Cl)CC2C(CC1Sc1nnnn1-c1ccccc1)C2(C)C` (stereo not drawn), for which the TGI is 49.4 µM in test [1]; greater than 100 µM in test [2]; greater than 100 µM in test [3]; greater than 100 µM in [4]; greater than 100 µM in test [5]; greater than 100 µM in test [6]. Moreover, the TGI in test [8] and in test [9] was greater than 100 µM in each case.

In the case of `C[C@]12CC[C@H](O)CC1=CC[C@@H]1[C@@H]2CC[C@]2(C)/C(=N/OCCN3CCCC3)CC[C@@H]12`, the TGI in [10] was 37.6 µM; in [1] it was 23 µM; in test [2] it was 27.1 µM; in test [3], 31.1 µM; in [4] it was 30.7 µM; in [5] it was 29.3 µM. The values for the TGI in test [6], in [8] and in test [9] were 28 µM, 93.6 µM and 27.7 µM, respectively.

In the case of `COc1ccc(OC)c2c1C1CCC(=O)N1CN2C(C)=O` (stereo not drawn), the TGI in test [1], in test [2], in test [3], in test [4], in [5] and in test [6] was greater than 100 µM throughout. Further, the TGI in test [7], in [8] and in [9] was greater than 100 µM throughout.

Regarding `CC(C)N(C)C(=O)C12C3C4C1C1C2C3C41C#N` (stereo not drawn), the TGI in test [10], in test [1], in test [2], in [3], in [4] and in test [5] was greater than 100 µM throughout. The TGI in test [6], in test [8] and in [9] was greater than 100 µM throughout.

For `CCOc1cc(C2CC(c3ccc(NS(=O)(=O)c4cc([N+](=O)[O-])ccc4C)cc3)=NN2)ccc1O` (stereo not drawn), the TGI is 51.6 µM in test [10]; 50.5 µM in test [1]; 80.7 µM in test [2]; 37.3 µM in [3]; greater than 100 µM in [4]; 40.4 µM in test [5]. Moreover, the values for the TGI in [6] and in [8] were 37.8 µM and 65.2 µM, respectively.

Turning to `CCc1c(C)c(C#N)c(=S)n(C2OC(CO)C(O)C(O)C2O)c1C` (stereo not drawn), the TGI in test [1], in [2], in [3], in test [4], in test [5] and in test [6] was greater than 100 µM in each case. The TGI in test [7], in [8] and in test [9] was greater than 100 µM throughout.

For the compound `O=C(CNc1ccc(Cl)cc1Cl)NC1C=Cc2ccc(S(=O)(=O)Nc3ccc(Cl)cc3Cl)cc2C1=O` (stereo not drawn), the TGI in [10], in [1], in test [2], in test [3], in test [4] and in test [7] was greater than 100 µM throughout. In addition, the TGI in [8] and in test [9] was greater than 100 µM throughout.

On to `COc1ccc(/C=C2\N=C(c3ccccc3)N(C3Nc4cc5c(cc4S3)NC(N3C(=O)/C(=C/c4ccc(OC)cc4)N=C3c3ccccc3)S5)C2=O)cc1` (stereo not drawn), for which the TGI was 61.9 µM in [10]; greater than 100 µM in test [1]; greater than 100 µM in test [2]; greater than 100 µM in test [3]; greater than 100 µM in test [4]; greater than 100 µM in test [5]. Further, the TGI in test [6] and in [9] was greater than 100 µM each time.

As for `CC(=O)c1cc2ccccc2n(O)c1=N`, the TGI in test [1], in test [2], in [3], in test [4], in test [5] and in test [6] was greater than 100 µM each time. Besides, the TGI in test [7], in test [8] and in [9] was greater than 100 µM in each case.

Values taken from PubChem BioAssay (NCI).
